{
  "source": "patent US6465618B1",
  "about": "“Mitogen activated protein kinase (MAPK) kinase” (Asahi Kasei Kabushikiki Kaisha, priority 1997, dated 2002)",
  "key": {"[1]": {"system": "MKK7", "experiment": "Activation of MKK7 by TNF-α in KB and U937 cells (immune complex kinase assay)", "type": "cell-based", "settings": "KB cells 20 ng/ml, U937 cells 100 ng/ml human TNF-α; 5 to 180 minutes", "experimental": "(§1) KB cells were cultured in Dulbecco's modified Eagles medium (DMEM) containing 10% bovine serum, and the cultured cells were stimulated with 20 ng/ml human TNF-α (manufactured and sold by BECTON DICKINSON AND COMPANY, USA, under the brand of Collaborative Biomedical Products). U937 cells were cultured in RPMI 1640 medium containing 10% fetal bovine serum, and the cultured cells were stimulated with 100 ng/ml human TNF-α. The cells were sampled from each cell culture 5, 15, 30, 60, 120 and 180 minutes after the start of the stimulation to thereby prepare cell extracts. The cell extracts were prepared as follows. The sampled cells were suspended in 0.7 M NaCl solution and washed once with ice-cold HEPES-buffered saline. […]\n(§2) To 200 μl of the cell extract was added 3 μl of an antiserum (anti-MKK7 antiserum and anti-SEK1/MKK4 antiserum were separately used), and a reaction for preparing an immune complex was allowed to proceed while incubating at 4° C. for 1 hour. […] The phosphorylation of c-Jun was detected by autoradiography and used as an index for the activation of MKK7 or SEK1/MKK4 by TNF-α."}, "[2]": {"system": "SEK1/MKK4", "experiment": "Activation of SEK1/MKK4 by TNF-α in KB and U937 cells (immune complex kinase assay)", "type": "cell-based", "settings": "KB cells 20 ng/ml, U937 cells 100 ng/ml human TNF-α; 5 to 180 minutes", "experimental": "as §1, §2"}},
  "data": [
    {"substance": "TNF-α", "values": [
      {"measurement": "activation of MKK7 by TNF-α (phosphorylation of c-Jun as index)", "setting": "[1]", "result": "activated"},
      {"measurement": "activation of SEK1/MKK4 by TNF-α (phosphorylation of c-Jun as index)", "setting": "[2]", "result": "did not activate"}
    ]}
  ]
}
